Tests used:
Glucocorticoid receptor = target: T1, Glucocorticoid receptor (Homo sapiens, UniProt P04150); assay: Antagonist activity at glucocorticoid receptor expressed in A549 cells assessed as inhibition of corticoid-induced gene transcription by luciferase reporter gene assay; assay type: functional, cell-based
T1 sequence (P04150 whole entry): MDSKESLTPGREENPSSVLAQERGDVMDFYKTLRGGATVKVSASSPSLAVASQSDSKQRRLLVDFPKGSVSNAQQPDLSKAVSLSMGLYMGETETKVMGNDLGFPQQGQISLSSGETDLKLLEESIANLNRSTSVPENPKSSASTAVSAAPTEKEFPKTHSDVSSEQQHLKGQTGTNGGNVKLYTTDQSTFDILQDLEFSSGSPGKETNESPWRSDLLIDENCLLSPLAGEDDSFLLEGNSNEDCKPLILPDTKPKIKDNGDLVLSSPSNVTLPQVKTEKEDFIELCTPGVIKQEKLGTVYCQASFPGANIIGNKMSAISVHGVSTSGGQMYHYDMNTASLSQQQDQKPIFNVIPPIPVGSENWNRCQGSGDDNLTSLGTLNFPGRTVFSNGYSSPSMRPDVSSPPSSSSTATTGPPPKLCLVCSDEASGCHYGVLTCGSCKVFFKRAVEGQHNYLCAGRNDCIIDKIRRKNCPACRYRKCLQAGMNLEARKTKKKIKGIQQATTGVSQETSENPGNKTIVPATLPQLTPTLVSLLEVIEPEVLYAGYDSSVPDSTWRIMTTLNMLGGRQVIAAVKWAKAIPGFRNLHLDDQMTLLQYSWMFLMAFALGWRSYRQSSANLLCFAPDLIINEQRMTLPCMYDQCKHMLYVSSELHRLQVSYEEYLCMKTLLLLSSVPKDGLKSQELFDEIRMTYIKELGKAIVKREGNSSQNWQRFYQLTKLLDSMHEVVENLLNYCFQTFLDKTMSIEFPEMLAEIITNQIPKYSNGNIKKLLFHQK

Homo sapiens = organism: Homo sapiens; assay: Ratio of IC50 for glucocorticoid receptor to IC50 for progesterone receptor
Progesterone receptor = target: T2, Progesterone receptor (Homo sapiens, UniProt P06401); assay: Antagonist activity at progesterone receptor expressed in human T47D cells assessed as inhibition of promegestone-induced alkaline phosphatase activity; assay type: functional, cell-based
T2 sequence (P06401 whole entry): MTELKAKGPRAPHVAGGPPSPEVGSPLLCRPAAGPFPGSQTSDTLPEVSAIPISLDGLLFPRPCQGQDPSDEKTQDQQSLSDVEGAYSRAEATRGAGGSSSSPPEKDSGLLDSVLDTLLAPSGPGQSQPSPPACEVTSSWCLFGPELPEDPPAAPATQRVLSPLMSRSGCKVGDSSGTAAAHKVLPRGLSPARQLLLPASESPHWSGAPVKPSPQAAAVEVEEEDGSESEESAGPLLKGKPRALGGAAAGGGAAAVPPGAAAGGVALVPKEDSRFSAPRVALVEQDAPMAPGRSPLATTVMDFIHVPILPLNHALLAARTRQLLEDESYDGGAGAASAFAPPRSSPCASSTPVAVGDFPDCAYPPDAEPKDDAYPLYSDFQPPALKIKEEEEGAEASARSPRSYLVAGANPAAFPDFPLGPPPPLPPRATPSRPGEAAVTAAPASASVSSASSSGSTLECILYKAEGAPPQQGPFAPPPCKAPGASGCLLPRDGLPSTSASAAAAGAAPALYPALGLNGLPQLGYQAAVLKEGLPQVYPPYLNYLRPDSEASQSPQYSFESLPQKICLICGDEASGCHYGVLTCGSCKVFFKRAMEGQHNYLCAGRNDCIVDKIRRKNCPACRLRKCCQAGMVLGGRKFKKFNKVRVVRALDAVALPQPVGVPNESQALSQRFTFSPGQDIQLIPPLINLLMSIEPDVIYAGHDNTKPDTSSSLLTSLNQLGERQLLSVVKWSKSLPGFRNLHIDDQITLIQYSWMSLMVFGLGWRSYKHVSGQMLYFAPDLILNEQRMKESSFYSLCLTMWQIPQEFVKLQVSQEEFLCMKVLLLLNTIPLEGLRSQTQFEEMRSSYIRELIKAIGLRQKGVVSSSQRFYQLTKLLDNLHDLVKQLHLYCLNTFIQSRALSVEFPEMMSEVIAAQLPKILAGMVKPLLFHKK

| IC50 (Glucocorticoid receptor) [nM] | Ratio IC50 (Homo sapiens) | IC50 (Progesterone receptor) [nM] | SMILES |
| --- | --- | --- | --- |
| 540 | 30 | 18 | C=C1OC=N[C@]12CC[C@H]1[C@@H]3CCC4=CC(=O)CCC4=C3[C@@H](c3ccc(N(C)C)cc3)C[C@@]12C |
| 14000 | 171 | 82 | C=C1OC=N[C@]12CC[C@H]1[C@@H]3CCC4=CC(=O)CCC4=C3[C@@H](c3ccc(C(C)=O)cc3)C[C@@]12C |
| 660 | 140 | 4.6 | C=C1OC(C)=N[C@]12CC[C@H]1[C@@H]3CCC4=CC(=O)CCC4=C3[C@@H](c3ccc(OC)c(F)c3)C[C@@]12C |
| 210 | 620 | 0.34 | C=C1OC(CC)=N[C@]12CC[C@H]1[C@@H]3CCC4=CC(=O)CCC4=C3[C@@H](c3ccc(C(C)=O)cc3)C[C@@]12C |
| 82 | 130 | 0.63 | C=C1OC(C)=N[C@]12CC[C@H]1[C@@H]3CCC4=CC(=O)CCC4=C3[C@@H](c3ccc(N(C)C)cc3)C[C@@]12C |
| > 10000 | > 10000 | 1 | C=C1OC(CC)=N[C@]12CC[C@H]1[C@@H]3CCC4=CC(=O)CCC4=C3[C@@H](c3ccc(OC)c(F)c3)C[C@@]12C |
| 460 | 780 | 0.59 | C=C1OC(C)=N[C@]12CC[C@H]1[C@@H]3CCC4=CC(=O)CCC4=C3[C@@H](c3ccc(C(C)=O)cc3)C[C@@]12C |

| SMILES | IC50 (Glucocorticoid receptor) [nM] | Ratio IC50 (Homo sapiens) | IC50 (Progesterone receptor) [nM] |
| --- | --- | --- | --- |
| C=C1OC(CC)=N[C@]12CC[C@H]1[C@@H]3CCC4=CC(=O)CCC4=C3[C@@H](c3ccc(N(C)C)cc3)C[C@@]12C | 23 | 24 | 0.98 |
